Experimental data taken from paper PMC5755953, “Identification of Allosteric Modulators of Metabotropic Glutamate 7 Receptor Using Proteochemometric Modeling” (Journal of Chemical Information and Modeling, 2017).

Assays:
mGlu7 [1] = tested on: mGlu7; set-up: method as in PMID 16339898; details: known reference compound, agonist/PAM; cited from earlier work
mGlu7 [2] = tested on: mGlu7; set-up: method as in PMID 17609420; details: known reference compound, allosteric antagonist/NAM; cited from earlier work
mGlu1 to mGlu8 receptor = assay: mGlu receptor panel selectivity assays (activation or inactivation); format: cell-based; details: up to concentration cutoffs of 10 μM
Protocol: Active hits from the VS were sourced from the Janssen corporate compound collection, no new synthesis was performed at this time, and batch purity information is provided in the Supporting Information (Table S5). The selectivity of the hits 1 to 4 was assessed by in vitro screening in the same panel of mGlu1 to mGlu8 receptor activation or inactivation assays.
(§1) Method for selectivity assays mGlu receptor panel selectivity assays: Ca2+ assays with human mGlu1, 3, 5, 7, or 8 receptor expressing HEK 293 cells were performed as reported in Lavreysen et al. (2013), except for a slight change in the procedure for mGlu5: cells expressing the human mGlu5 receptor were seeded at 40,000 cells/well in MW384. TwentyEfour hours after seeding, cells were incubated for 90 min in Ca2+ assay kit (Molecular Devices) dissolved in saline PBS supplemented with 5 mmol/L probenecid, pH 7.4 (f.c. 2.5 mmol/L probenecid as loading buffer was added on the cell layer without removal of medium) before measurements. Measurement of [35S]GTPγS binding to membranes from CHO cells expressing the rat mGlu6 receptor and membranes from L929sA cells expressing the human mGlu4 receptor were conducted also as described in Lavreysen et al.
(§2) Lavreysen H, et al. Pharmacological Characterization of JNJE40068782, a New Potent, Selective, and Systemically Active Positive Allosteric Modulator of the mGlu2 Receptor and Its

mGlu7 receptor = molecular target: T1, mGlu7 receptor (Homo sapiens, UniProt Q14831); assay: mGlu7 PAM assay (Ca2+ response, concentration response); format: cell-based; details: confirmed hits of virtual screening; for EC50: concentration response, read-out: mGlu7 PAM pEC50 (converted)
T1 construct: expressed in transfected cells; host or cells: HEK 293 cells

mGlu4 = molecular target: T2, mGlu4 (Homo sapiens, UniProt Q14833); assay: mGlu4 agonism assay ([35S]GTPγS binding to membranes); format: biochemical; details: selectivity panel; read-out: pEC50 in mGlu4 agonism assay (converted)
T2 construct: expressed in transfected cells; host or cells: L929sA cells (membranes)
Protocol: as §1, §2

T1 sequence (Q14831 35-915): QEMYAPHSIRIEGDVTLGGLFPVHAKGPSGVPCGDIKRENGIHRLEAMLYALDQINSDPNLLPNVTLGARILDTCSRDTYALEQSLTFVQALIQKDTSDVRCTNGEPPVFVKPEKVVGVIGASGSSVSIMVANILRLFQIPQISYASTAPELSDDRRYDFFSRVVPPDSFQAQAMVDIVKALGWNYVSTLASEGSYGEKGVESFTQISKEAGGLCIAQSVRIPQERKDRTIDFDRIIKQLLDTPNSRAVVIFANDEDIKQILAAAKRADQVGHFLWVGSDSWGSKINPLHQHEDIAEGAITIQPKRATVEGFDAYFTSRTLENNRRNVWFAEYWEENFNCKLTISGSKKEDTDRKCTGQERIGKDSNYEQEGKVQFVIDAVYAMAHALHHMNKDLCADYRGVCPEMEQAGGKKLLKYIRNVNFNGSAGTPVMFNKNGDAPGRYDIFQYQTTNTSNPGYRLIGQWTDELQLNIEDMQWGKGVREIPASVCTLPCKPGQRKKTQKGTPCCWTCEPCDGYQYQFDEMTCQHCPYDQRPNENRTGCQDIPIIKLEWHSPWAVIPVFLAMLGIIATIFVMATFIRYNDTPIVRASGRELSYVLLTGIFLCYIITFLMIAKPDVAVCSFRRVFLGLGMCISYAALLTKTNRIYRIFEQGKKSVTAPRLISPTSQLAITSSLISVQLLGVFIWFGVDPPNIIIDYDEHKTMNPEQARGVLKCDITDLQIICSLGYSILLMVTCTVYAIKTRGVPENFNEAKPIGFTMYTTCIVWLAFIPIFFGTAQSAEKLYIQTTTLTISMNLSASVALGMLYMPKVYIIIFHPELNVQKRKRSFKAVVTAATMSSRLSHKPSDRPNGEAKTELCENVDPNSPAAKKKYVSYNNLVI
T2 sequence (Q14833 33-912): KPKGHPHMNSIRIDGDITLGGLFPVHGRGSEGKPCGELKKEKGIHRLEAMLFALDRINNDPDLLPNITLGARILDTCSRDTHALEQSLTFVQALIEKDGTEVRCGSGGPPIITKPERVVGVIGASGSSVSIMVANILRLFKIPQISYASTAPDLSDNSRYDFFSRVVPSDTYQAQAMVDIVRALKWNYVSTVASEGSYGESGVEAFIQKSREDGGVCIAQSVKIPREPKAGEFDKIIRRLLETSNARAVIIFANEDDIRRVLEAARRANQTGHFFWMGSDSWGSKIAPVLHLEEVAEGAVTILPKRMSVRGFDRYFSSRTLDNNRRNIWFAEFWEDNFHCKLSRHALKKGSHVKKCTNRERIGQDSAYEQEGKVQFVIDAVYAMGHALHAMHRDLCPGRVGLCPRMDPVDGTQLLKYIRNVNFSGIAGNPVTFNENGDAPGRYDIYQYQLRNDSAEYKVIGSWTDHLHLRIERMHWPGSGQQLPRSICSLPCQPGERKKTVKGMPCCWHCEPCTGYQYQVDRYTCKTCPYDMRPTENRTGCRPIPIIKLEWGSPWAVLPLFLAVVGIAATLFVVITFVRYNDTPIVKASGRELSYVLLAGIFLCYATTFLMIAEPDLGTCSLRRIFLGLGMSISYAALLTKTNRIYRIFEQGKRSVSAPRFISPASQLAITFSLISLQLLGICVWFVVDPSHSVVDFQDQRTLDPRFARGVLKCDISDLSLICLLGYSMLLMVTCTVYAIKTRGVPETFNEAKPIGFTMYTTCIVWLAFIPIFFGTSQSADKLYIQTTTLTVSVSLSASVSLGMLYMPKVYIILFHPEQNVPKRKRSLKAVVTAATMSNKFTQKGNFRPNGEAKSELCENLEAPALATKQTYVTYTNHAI

SMILES | activity in panel of mGlu1 to mGlu8 receptor activation or inactivation assays (mGlu1 to mGlu8 receptor) | Emax (mGlu7 receptor) [%] | EC50 (mGlu7 receptor) [µM] | other results
c1ccc(C(NCCNC(c2ccccc2)c2ccccc2)c2ccccc2)cc1 [AMN-082] | – | – | – | PAM activity reported in cAMP and Ca2+ assays (mGlu7 [1]): Active PAM reported in cAMP but not Ca2+ assays
COc1ccc(-c2cc3onc(-c4ccncc4)c3c(=O)n2C)cc1 [MMPIP] | – | – | – | mGlu7-ant pIC50 (mGlu7 [2]): 7
COc1cc(F)cc(COc2ccc(C(=O)N[C@H](C)C(C)(C)C)cn2)c1 [compound 1] | No activity | 86 | 12.6 | –
COc1c(F)cccc1COc1ccc(C(=O)N[C@H](C)C(C)(C)C)cn1 [compound 2] | No activity | 103 | 12.6 | –
CNC(=O)N1CCCC(CN2CCC(OC(c3ccccc3)c3ccccc3)CC2)C1 (stereo not shown) [compound 3] | – | – | – | EC50 (mGlu4): 0.631 µM
CC(C)(C)OC(=O)N1CCc2ccc(-n3cc(-c4ccncc4)cn3)cc2CC1 [compound 4] | No activity | 57 | 31.6 | –
COc1ccc(CN2CCc3c(nc(N4CCC(C)CC4)[nH]c3=O)C2)cc1 [compound 5] | – | 99 | 15.8 | –
CC1CCN(c2nc(-c3ccncc3)nc3cnccc23)CC1 [compound 6] | – | 65 | > 30.2 | –
